These compounds were tested against human Plasma Kallikrein (Homo sapiens (Human), UniProt P03952) (assay: In vitro enzyme inhibition of human plasma kallikrein (Pro-Phe-Arg-AMC cleavage)). Conditions: not given.
Type: biochemical
Experimental: The ability of the compounds disclosed herein to inhibit human plasma kallikrein activity was quantified according to the procedures below.
A 10 mM solution of the test compound was made in DMSO. This solution was serially diluted 1:5 in DMSO to yield 2000, 400, 80, 16, 3.2, 0.64, 0.128, 0.0256 and 0.00512 μM compound test solutions. A control tube containing only DMSO is included. 16 μL of each compound test solution was combined with 384 μL of assay buffer (50 mM Tris-HCl pH 7.5, 150 mM NaCl, 0.01% Triton X-100) to yield a “4× test compound buffer stock”.
Separately, a 40 nM solution of human Plasma Kallikrein (Abcam) and a 93.6 μM solution Pro-Phe-Arg-AMC (Bachem) were made using assay buffer. These solutions are hereby referred to as 4×hPK and 2×PFR-AMC, respectively.
60 μL of each 4× test compound buffer stock was combined with 60 μL of 4×hPK to yield 120 μL of “2× test compound buffer stock/2×hPK”. 50 μL was removed from this mixture and placed into duplicate wells on a Microfluor 1Black U-bottom microtiter plate (Thermo Scientific). This plate was incubated for 5 minutes at 37° C. To each well, 50 μL of pre-warmed 2×PFR-AMC was added to start the enzymatic reaction. Cleavage of PFR-AMC was monitored in a Biotek Synergy H4 reader set at 37° C. Readings are taken every 43 seconds for 1 hour. The highest mean velocity over 20 reads (˜15 minutes) is used to calculate the IC50. The IC50 is calculated using the Gen5 (Biotek Instruments).
The ability of the compounds listed in Table 2 to inhibit human plasma kallikrein activity was determined.

Sequence of human Plasma Kallikrein (P03952 391-638 limits assumed): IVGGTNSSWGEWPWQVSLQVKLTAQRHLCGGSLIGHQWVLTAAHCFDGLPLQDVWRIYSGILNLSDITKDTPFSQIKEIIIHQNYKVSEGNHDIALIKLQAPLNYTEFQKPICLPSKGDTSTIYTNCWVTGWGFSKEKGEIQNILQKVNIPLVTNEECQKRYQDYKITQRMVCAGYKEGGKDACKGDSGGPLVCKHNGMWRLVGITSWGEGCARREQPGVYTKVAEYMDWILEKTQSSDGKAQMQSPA
Sequence of human Plasma Kallikrein (P03952 20-390 partner limits assumed): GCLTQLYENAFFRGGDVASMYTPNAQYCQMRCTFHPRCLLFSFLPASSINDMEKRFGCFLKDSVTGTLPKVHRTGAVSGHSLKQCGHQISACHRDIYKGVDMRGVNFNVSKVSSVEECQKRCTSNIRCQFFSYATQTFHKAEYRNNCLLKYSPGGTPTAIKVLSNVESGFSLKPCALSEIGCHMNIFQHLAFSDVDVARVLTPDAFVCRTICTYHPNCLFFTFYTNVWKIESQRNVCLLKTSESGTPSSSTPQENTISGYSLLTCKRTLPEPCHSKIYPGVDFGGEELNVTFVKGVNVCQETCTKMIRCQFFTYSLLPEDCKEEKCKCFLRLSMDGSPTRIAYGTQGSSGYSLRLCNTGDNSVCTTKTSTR

Question: How did the IC50 turn out when `Cc1cc(N)nc(C)c1CNC(=O)c1nn(Cc2ccc3ncc(Cl)cc3c2)c2ccnc(Cl)c12` [Example 119, N-((6-amino-2,4-dimethylpyridin-3-yl)methyl)-4-chloro-1-((3-chloroquinolin-6-yl)methyl)-1H-pyrazolo[4,3-c]pyridine-3-carboxamide] was run?
Answer: The IC50 was 0.1 to 1 µM.

Question: With `COc1ccc2c(n1)c(C(=O)NCc1c(C)cc(N)nc1C)cn2Cc1ccc2ncc(Cl)cc2c1` [Example 128, N-((6-amino-2,4-dimethylpyridin-3-yl)methyl)-1-((3-chloroquinolin-6-yl)methyl)-5-methoxy-1H-pyrrolo[3,2-b]pyridine-3-carboxamide] as the compound, how does the IC50 read?
Answer: Its IC50 is 1 to 10 µM.

Question: With `COc1ncnc2c1c(C(=O)NCc1c(C)cc(N)nc1C)cn2Cc1ccc2ncc(Cl)cc2c1` [Example 131, N-((6-amino-2,4-dimethylpyridin-3-yl)methyl)-7-((3-chloroquinolin-6-yl)methyl)-4-methoxy-7H-pyrrolo[2,3-d]pyrimidine-5-carboxamide] as the compound, how does the IC50 read?
Answer: Its IC50 is 0.1 to 1 µM.

Question: `Cc1cc(N)nc(C)c1CNC(=O)c1cn(Cc2ccc3ncc(Cl)cc3c2)c2ncc(C#N)cc12` [Example 135, N-((6-amino-2,4-dimethylpyridin-3-yl)methyl)-1-((3-chloroquinolin-6-yl)methyl)-5-cyano-1H-pyrrolo[2,3-b]pyridine-3-carboxamide] was tested. Which IC50 did it give?
Answer: The IC50 was 0.1 to 1 µM.

Question: For `Cc1cc(N)nc(C)c1CNC(=O)c1cn(Cc2ccc3ncc(Cl)cc3c2)c2ncnc(C#N)c12` [Example 136, N-((6-amino-2,4-dimethylpyridin-3-yl)methyl)-7-((3-chloroquinolin-6-yl)methyl)-4-cyano-7H-pyrrolo[2,3-d]pyrimidine-5-carboxamide], which IC50 is on record?
Answer: The IC50 was 0.1 to 1 µM.

Question: How did the IC50 turn out when `COc1ccc2c(n1)c(C(=O)NCc1c(C)cc(N)nc1C)nn2Cc1ccc2ncc(Cl)cc2c1` [Example 137, N-((6-amino-2,4-dimethylpyridin-3-yl)methyl)-1-((3-chloroquinolin-6-yl)methyl)-5-methoxy-1H-pyrazolo[4,3-b]pyridine-3-carboxamide] was run?
Answer: Its IC50 is 0.1 to 1 µM.

Same assay, conditions: human plasma kallikrein, PFR-AMC substrate, 37° C.; read-out: hPK IC50

Question: Which IC50 does the source give for `Cc1cc(N)nc(C)c1CNC(=O)c1cc(C#N)nn1Cc1ccc2ncc(Cl)cc2c1` [Example 109, N-((6-amino-2,4-dimethylpyridin-3-yl)methyl)-1-((3-chloroquinolin-6-yl)methyl)-3-cyano-1H-pyrazole-5-carboxamide] here?
Answer: Its IC50 is > 10 µM.

Question: `Cc1cc(N)nc(C)c1CNC(=O)c1cn(Cc2ccc3ncc(Cl)cc3c2)c(C(N)=O)n1` [Example 111, N4-((6-amino-2,4-dimethylpyridin-3-yl)methyl)-1-((3-chloroquinolin-6-yl)methyl)-1H-imidazole-2,4-dicarboxamide] was tested. Which IC50 did it give?
Answer: Its IC50 is 0.1 to 1 µM.

Question: For `Cc1cc(N)nc(C)c1CNC(=O)c1cn(Cc2ccc3ncc(Cl)cc3c2)c(CN)n1` [Example 112, N-((6-amino-2,4-dimethylpyridin-3-yl)methyl)-2-(aminomethyl)-1-((3-chloroquinolin-6-yl)methyl)-1H-imidazole-4-carboxamide], which IC50 is on record?
Answer: Its IC50 is 0.1 to 1 µM.

Question: For `Cc1cc(N)nc(C)c1CNC(=O)c1cn(Cc2ccc3ncc(Cl)cc3c2)c(C#N)n1` [Example 113, N-((6-amino-2,4-dimethylpyridin-3-yl)methyl)-1-((3-chloroquinolin-6-yl)methyl)-2-cyano-1H-imidazole-4-carboxamide], which IC50 is on record?
Answer: The IC50 was 0.1 to 1 µM.

Question: With `Cc1cc(N)nc(C)c1CNC(=O)c1cn(Cc2ccc3ncc(Cl)cc3c2)c2cnc(Cl)cc12` [Example 117, N-((6-amino-2,4-dimethylpyridin-3-yl)methyl)-5-chloro-1-((3-chloroquinolin-6-yl)methyl)-1H-pyrrolo[2,3-c]pyridine-3-carboxamide] as the compound, how does the IC50 read?
Answer: The IC50 was < 0.1 µM.

Question: Which IC50 does the source give for `Cc1cc(N)nc(C)c1CNC(=O)c1cn(Cc2ccc3ncc(Cl)cc3c2)c2cc[nH]c(=O)c12` [Example 118, N-((6-amino-2,4-dimethylpyridin-3-yl)methyl)-1-((3-chloroquinolin-6-yl)methyl)-4-oxo-4,5-dihydro-1H-pyrrolo[3,2-c]pyridine-3-carboxamide] here?
Answer: Its IC50 is > 10 µM.

Question: Which IC50 does the source give for `Cc1cc(N)nc(C)c1CNC(=O)c1nn(Cc2ccc3ncc(Cl)cc3c2)c2cc[nH]c(=O)c12` [Example 120, N-((6-amino-2,4-dimethylpyridin-3-yl)methyl)-1-((3-chloroquinolin-6-yl)methyl)-4-oxo-4,5-dihydro-1H-pyrazolo[4,3-c]pyridine-3-carboxamide] here?
Answer: The IC50 was 1 to 10 µM.

Question: Which IC50 does the source give for `COc1cc2c(C(=O)NCc3c(C)cc(N)nc3C)cn(Cc3ccc4ncc(Cl)cc4c3)c2cn1` [Example 121, N-((6-amino-2,4-dimethylpyridin-3-yl)methyl)-1-((3-chloroquinolin-6-yl)methyl)-5-methoxy-1H-pyrrolo[2,3-c]pyridine-3-carboxamide] here?
Answer: The IC50 was < 0.1 µM.

Question: With `Cc1cc(N)nc(C)c1CNC(=O)c1nn(Cc2ccc3ncc(Cl)cc3c2)c2c[nH]c(=O)cc12` [Example 124, N-((6-amino-2,4-dimethylpyridin-3-yl)methyl)-1-((3-chloroquinolin-6-yl)methyl)-5-oxo-5,6-dihydro-1H-pyrazolo[3,4-c]pyridine-3-carboxamide] as the compound, how does the IC50 read?
Answer: Its IC50 is 0.1 to 1 µM.

Question: For `Cc1cc(N)nc(C)c1CNC(=O)c1nn(Cc2ccc3ncc(Cl)cc3c2)c2cnc(C#N)cc12` [Example 130, N-((6-amino-2,4-dimethylpyridin-3-yl)methyl)-1-((3-chloroquinolin-6-yl)methyl)-5-cyano-1H-pyrazolo[3,4-c]pyridine-3-carboxamide], which IC50 is on record?
Answer: Its IC50 is < 0.1 µM.

Question: How did the IC50 turn out when `Cc1cc(N)nc(C)c1CNC(=O)c1cn(Cc2ccc3ncc(Cl)cc3c2)c2nc[nH]c(=O)c12` [Example 132, N-((6-amino-2,4-dimethylpyridin-3-yl)methyl)-7-((3-chloroquinolin-6-yl)methyl)-4-oxo-4,7-dihydro-3H-pyrrolo[2,3-d]pyrimidine-5-carboxamide] was run?
Answer: Its IC50 is > 10 µM.

Question: For `Cc1cc(N)nc(C)c1CNC(=O)c1cn(Cc2ccc3ncc(Cl)cc3c2)c2ccnc(C#N)c12` [Example 133, N-((6-amino-2,4-dimethylpyridin-3-yl)methyl)-1-((3-chloroquinolin-6-yl)methyl)-4-cyano-1H-pyrrolo[3,2-c]pyridine-3-carboxamide], which IC50 is on record?
Answer: The IC50 was < 0.1 µM.

Question: `Cc1cc(N)nc(C)c1CNC(=O)c1c2c(N)cccc2nn1Cc1ccc2ncc(Cl)cc2c1` [Example 140, 4-amino-N-((6-amino-2,4-dimethylpyridin-3-yl)methyl)-2-((3-chloroquinolin-6-yl)methyl)-2H-indazole-3-carboxamide] was tested. Which IC50 did it give?
Answer: The IC50 was > 10 µM.

Question: How did the IC50 turn out when `Cc1cc(N)nc(C)c1CNC(=O)c1c(C(F)(F)F)nnn1Cc1ccc2ncc(Cl)cc2c1` [Example 141, N-((6-amino-2,4-dimethylpyridin-3-yl)methyl)-1-((3-chloroquinolin-6-yl)methyl)-4-(trifluoromethyl)-1H-1,2,3-triazole-5-carboxamide] was run?
Answer: The IC50 was > 10 µM.

Question: Which IC50 does the source give for `CCOC(=O)c1nc(C(=O)NCc2c(C)cc(N)nc2C)nn1Cc1ccc2ncc(Cl)cc2c1` [Example 142, ethyl 3-(((6-amino-2,4-dimethylpyridin-3-yl)methyl)carbamoyl)-1-((3-chloroquinolin-6-yl)methyl)-1H-1,2,4-triazole-5-carboxylate] here?
Answer: Its IC50 is > 10 µM.

Question: With “N-((6-amino-2,4-dimethylpyridin-3-yl)methyl)-1-((3-chloroquinolin-6-yl)methyl)-3-cyano-1H-1,2,4-triazole-5-carboxamide [Example 107]” as the compound, how does the IC50 read?
Answer: The IC50 was 0.1 to 1 µM.

— patent US10301284B2, “Therapeutic inhibitory compounds” (LifeSci Pharmaceuticals, Inc., priority 2016, dated 2019)
